Five compounds from ChEMBL document CHEMBL1137110, “Synthesis and biological activity of 22-oxa CD-ring modified analogues of 1alpha,25-dihydroxyvitamin D3: spiro[5.5]undecane CF-ring analogues” (2004) can be followed below.

In assay [1] the test system is MCF7. Kind of assay: Antiproliferative activity on human breast cancer MCF-7 cells was determined. It counts as functional.
The species entered for assay [2] is Mus musculus. The experiment in a line: Effect of compound on Ca level in mice blood serum was determined. Format: functional.
The subject of assay [3] is HL-60. Kind of assay: Prodifferentiating activity of compound on human leukemia HL-60 cells was determined. Format: functional.
Assay [4] addresses T1, Vitamin D3 receptor (Sus scrofa) (UniProt A3RGC1).
T1 sequence (whole entry): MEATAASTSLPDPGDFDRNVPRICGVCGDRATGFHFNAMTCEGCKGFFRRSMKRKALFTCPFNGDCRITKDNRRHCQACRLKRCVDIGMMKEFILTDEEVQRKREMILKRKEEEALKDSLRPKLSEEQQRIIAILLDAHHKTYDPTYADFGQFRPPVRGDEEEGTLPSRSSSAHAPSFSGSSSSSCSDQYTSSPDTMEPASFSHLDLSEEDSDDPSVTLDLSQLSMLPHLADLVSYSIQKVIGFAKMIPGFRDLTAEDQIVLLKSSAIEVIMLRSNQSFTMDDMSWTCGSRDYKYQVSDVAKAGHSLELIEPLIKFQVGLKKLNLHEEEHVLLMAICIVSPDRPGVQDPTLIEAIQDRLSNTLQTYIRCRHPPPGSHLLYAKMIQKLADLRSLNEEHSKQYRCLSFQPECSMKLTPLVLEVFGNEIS
The experiment in a line: Binding affinity for pig nuclear vitamin D receptor.

For assay [5], the target named is T2, Vitamin D3 receptor (Mus musculus) (UniProt P48281).
T2 sequence (whole entry): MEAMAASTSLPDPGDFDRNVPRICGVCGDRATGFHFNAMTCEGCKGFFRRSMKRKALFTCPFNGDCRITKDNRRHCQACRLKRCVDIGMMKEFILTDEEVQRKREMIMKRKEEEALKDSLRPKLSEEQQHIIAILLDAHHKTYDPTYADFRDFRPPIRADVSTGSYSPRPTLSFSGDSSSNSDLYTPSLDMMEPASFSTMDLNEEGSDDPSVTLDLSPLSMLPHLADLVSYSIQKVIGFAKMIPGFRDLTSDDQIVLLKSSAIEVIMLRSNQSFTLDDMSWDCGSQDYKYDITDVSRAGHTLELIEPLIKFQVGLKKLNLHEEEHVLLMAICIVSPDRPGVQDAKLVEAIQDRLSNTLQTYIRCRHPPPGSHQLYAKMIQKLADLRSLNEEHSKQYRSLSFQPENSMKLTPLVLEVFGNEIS
Kind of assay: Effect on Ca level in mouse serum relative to 1-alpha,25(OH)2D3 treatment. Format: functional, in vivo.

The target of assay [6] is T3, Vitamin D3 receptor (Homo sapiens) (UniProt P11473).
T3 sequence (whole entry): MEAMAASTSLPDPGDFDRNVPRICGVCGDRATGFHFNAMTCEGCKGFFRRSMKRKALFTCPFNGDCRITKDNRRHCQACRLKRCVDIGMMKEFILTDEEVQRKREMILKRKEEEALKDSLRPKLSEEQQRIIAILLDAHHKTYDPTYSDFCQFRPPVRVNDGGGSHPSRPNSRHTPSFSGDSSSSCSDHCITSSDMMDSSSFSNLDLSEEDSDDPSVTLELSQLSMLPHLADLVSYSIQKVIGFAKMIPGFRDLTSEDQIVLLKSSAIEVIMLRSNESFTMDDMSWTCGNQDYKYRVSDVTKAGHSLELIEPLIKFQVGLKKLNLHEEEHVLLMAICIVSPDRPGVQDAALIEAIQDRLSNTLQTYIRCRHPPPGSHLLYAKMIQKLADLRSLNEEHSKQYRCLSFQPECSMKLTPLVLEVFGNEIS
Kind of assay: Differentiation activity in human leukemia HL-60 cells relative to 1-alpha,25(OH)2D3. Format: functional, cell-based.

The target of assay [7] is T1, Vitamin D3 receptor (Sus scrofa). The experiment in a line: Binding affinity for pig nuclear vitamin D receptor relative to 1-alpha,25(OH)2D3.
Assay [8] addresses T3, Vitamin D3 receptor (Homo sapiens). The experiment in a line: Antiproliferative activity in human breast cancer MCF-7 cells relative to 1-alpha,25(OH)2D3. It counts as functional, cell-based. As to conditions: MCF7.

SMILES strings stand for the structures. Where only a bound is given, the exact number is not on record here.

With `C=C1/C(=C\C=C2/CCC[C@]3(C)[C@@H]([C@H](C)CCCC(C)(C)O)CC[C@@H]23)C[C@@H](O)C[C@@H]1O` [CALCITRIOL], the Activity in assay [1], in assay [2], in assay [3] and in assay [4] was 100 in each case.

In the case of `C=C1/C(=C/C=C2/CCC[C@]3(CC[C@H](OCCC(C)(C)O)CC3)C2)C[C@@H](O)C[C@@H]1O`, the Activity was below 0.25 in assay [5], below 1 in assay [6], below 0.1 in assay [7] and 0 in assay [8].

Consider `CC(C)(O)CCO[C@H]1CC[C@@]2(CCC/C(=C\C=C3C[C@@H](O)C[C@H](O)C3)C2)CC1`, for which the Activity in assay [5] is below 0.25; in assay [6] it was 8; in assay [7], below 0.1; in assay [8] it was 60.

Take `CC(C)(O)CCO[C@H]1CC[C@]2(CCC/C(=C\C=C3C[C@@H](O)C[C@H](O)C3)C2)CC1`: the Activity was below 0.25 in assay [5], 6 in assay [6], below 0.1 in assay [7] and 7 in assay [8].

Take `C=C1/C(=C\C=C2/CCC[C@]3(CC[C@@H](OCCC(C)(C)O)CC3)C2)C[C@@H](O)C[C@@H]1O`: the Activity in assay [5] is below 0.25; in assay [7], 0.5; in assay [8], 10.
